This is an account of results in patent publication US20090258045A1, “[…] ANTIMICROBIAL PEPTIDES” (Massachusetts Institute of Technology, priority 2008, published 2009).

In assay [1] the test system is S. aureus. The conditions noted are these: free Ponericin; cited from earlier work.
Assay [2] deals with S. aureus. The assay is described as follows: Staphyloccocus aureus macrodilution assay. It counts as cell-based, Staphylococcus aureus. On the procedure: Staphyloccocus aureus macrodilution assays. All liquid assays were performed in cation-adjusted Mueller Hinton Broth II (CMHB). Qualitative assays were performed following standard macrodilution methods as outlined by the National Committee on Clinical Laboratory Standards (Standards, N. C. f. C. L. Journal, 1999, Approved standard M26-A) with a challenge of 10^5 CFU/mL. For assays involving co-incubation with films deposited on silicon, 24-well plates were used, with 0.5 mL of liquid culture per well. Briefly, each square-cut silicon substrate (1.0 cm×1.0 cm), either bare or coated depending on the test group, was placed flat in the center of a well in a 24-well plate, polished side up. Each well was then filled with 0.50 mL of S. aureus in exponential growth phase at 10^5 CFU/mL in CMHB, completely immersing the substrate. Quantitative assays were done in 96-well plates with 150 μL of liquid culture per well, with 135 μL of test media and 15 μL of inoculation culture at 10^6 CFU/mL in CMHB. All test media were sterile-filtered through 0.2 μm membranes prior to use. […] Cell density was read at OD 600 nm in a BioTek® PowerWave™ XS Microplate Spectrophotometer with accompanying Gen5 program Version 1.00.14. […]
Antimicrobial activity of Ponericin as released from LbL assemblies. In vitro activity of Ponericin, both in dipping solution and as released from films, were assessed against S. aureus. […]

Turning to Ponericin G1, the “reported MIC” value in assay [1] is 4 to 8 µg/mL. For the same substance, the “concentration needed to inhibit S. aureus proliferation” value in assay [2] (dipping solution: free Ponericin in 0.1M sodium acetate (FIG. 7A)) and in assay [2] (film-released: elution buffer of [(Poly 1/HA)(Pon/HA)]100 (FIG. 7B)) was 11 to 22 µg/mL throughout.
